Measured values from patent US9925179B2, “Combination therapy for mental disorders” (priority 2014, dated 2018).
“And” between values parts separate entries of the source, which are not always exact repeats. Equal values may be shown once.

Columns and labels:
BP-II patients [1] = assay: Symptom severity (HDRS, YMRS) in 12-week randomized double-blind placebo-controlled add-on trial; format: in vivo, human; details: for Within group change (baseline minus endpoint) HDRS, Mean ± SD / Within group change (baseline minus endpoint) YMRS, Mean ± SD: BP-II patients, add-on to valproic acid, 12-week follow-up; for HDRS, difference versus placebo, B (standardized coefficient) / YMRS, difference versus placebo, B (standardized coefficient): GEE, treatment group x treatment duration interaction, placebo as reference, controlling for age, gender, treatment duration
From the text: (§1) 250˜300 male and female BP-II patients (18˜65 years old) were recruited, from the Department of Psychiatry at National Cheng Kung University Hospital and Tri-Service General Hospital into a 12-week treatment. The research protocol was examined for approval by the Institutional Review Board for the Protection of Human Subjects at National Cheng Kung University Hospital and Tri-Service General Hospital. All participants were given a complete description of the study and were asked to sign an informed consent before the study began. Patients who had major, mental illnesses other than BP-II and who had taken memantine or DM within 1 week before the first dose of the double-blind medication were excluded. The Chinese Version of Modified Schedule of Affective Disorder and Schizophrenia-Life Time (SADS-L) will be conducted for confirmation of the diagnosis. […] After each patient had been diagnosed based on DSM-IV criteria by a senior psychiatrist and confirmed by a clinical psychologist using a structured interview, SADS-L, the severity of each patient's clinical symptoms was assessed using the 17-item Hamilton Rating Scale for Depression (HRSD) and the Young Mania Rating Scale (YMRS). All the patients at Screen who score 18 on the HRSD or 14 on the YMRS were recruited. Eligible patients were randomly assigned into four treatment groups (n=40-45 for each group) in a double-blind manner and all groups matched in demographic characteristics, symptom severity, while they received open-label valproic acid (VPA) treatment (500 mg and 1000 mg daily [[…] in plasma]): 1) DM (30 mg/day), 2) memantine (5 mg/day), 3) combination of DM and memantine (30 mg/day DM and 5 mg/day memantine), and 4) placebo respectively for 12 weeks. Patients were randomized into 4 groups through a computer-generated randomization table to receive placebo or any of active treatments in a 1:1:1:1 ratio. The patients with side-effect intolerance or clinical worsening were withdrawn earlier.
Efficacy will be assessed by the YMRS, HDRS and Side-Effects.
Clinical ratings were performed by research psychiatric professionals who were well-trained and experienced in the rating scales. All assessments were blind to treatment assignment and completed at baseline and at the end of week 1, 2, 4, 8 and 12. Routine laboratory tests, including CBC and biochemistry were checked at baseline and the end of week 12.
(2) Young Mania Rating Scale (YMRS) and 17-item Hamilton Depression Rating Scale (HDRS)
Those clinically suspected of having a mood disorder were invited to be interviewed with the Chinese version SADS-L and diagnosed as having BP-II. The severity of current symptoms was assessed by using the YMRS and HDRS. The diagnosis of a mood disorder was made according to DSM-IV criteria, except for BP-II, for which we used a 2-day instead of a 4-day duration for hypomania.
(§2) The intent to-treat (ITT) analysis set included all randomized patients who received at least one dose of study drug, and had one baseline assessment and at least one after baseline. All the outcome variables were analyzed in the ITT set, including HDRS, YMRS, cytokine levels, plasma BDNF levels and metabolic parameters; missing data was filled in using the last observation carried forward (LOCF) method.
(§3) The overall within-group changes of each outcome over the 12 weeks were analyzed by paired sample t-test. To compare the difference in outcomes of add-on medication (DM30, MM5, and DM30+MM5) versus placebo, generalized estimating equation (GEE) was adopted. A total of 10 models ran with each outcome as a dependent variable. In each model, add-on medication received (DM30, MM5, and DM30+MM5 vs. controls), treatment duration, treatment received X treatment duration, gender, and age were included as independent variables. The covariance structure employed was autoregressive (AR(1)) model. The placebo group was used as reference group. […]

TNF-α = assay: Plasma TNF-α by ELISA in 12-week add-on trial; format: in vivo, human; details: for Within group change (baseline minus endpoint) TNF-α, Mean ± SD: BP-II patients, plasma, add-on to valproic acid, 12-week follow-up; for TNF-α, difference versus placebo, B (standardized coefficient): GEE interaction term, placebo as reference, controlling for age, gender, treatment duration, HDRS and YMRS
From the text: as §1
Serum levels of DM, memantine, plasma BDNF, and cytokines were measured. […] Plasma BDNF, CRP, TNF-α, were measured at baseline, 1, 2, 4, 8 and 12 weeks and quantified using the enzyme-linked immunosorbent assays (ELISAs). Cytokine levels were quantified using an antibody pair assay system (Flexia; BioSource Intl., Camarillo, Calif.). […]
(§4) Symptom severity, immunological parameters (plasma tumor necrosis factor α (TNF-α) and C-reactive protein (CRP)) and plasma brain derived neurotrophic factor (BDNF) were examined regularly. Metabolic profiles (cholesterol, triglyceride, HbA1C, fasting serum glucose, body mass index [BMI]) were measured at baseline and 2, 8, and 12 weeks. […]
(§5) The overall within-group changes of each outcome over the 12 weeks were analyzed by paired sample t-test. […]

CRP = assay: Plasma CRP by ELISA in 12-week add-on trial; format: in vivo, human; details: for Within group change (baseline minus endpoint) CRP, Mean ± SD: BP-II patients, plasma, add-on to valproic acid, 12-week follow-up; for CRP, difference versus placebo, B (standardized coefficient): GEE interaction term, placebo as reference, controlling for age, gender, treatment duration, HDRS and YMRS
BDNF = assay: Plasma BDNF by ELISA in 12-week add-on trial; format: in vivo, human; details: for Within group change (baseline minus endpoint) BDNF, Mean ± SD: BP-II patients, plasma, add-on to valproic acid, 12-week follow-up; for BDNF, difference versus placebo, B (standardized coefficient): GEE interaction term, placebo as reference, controlling for age, gender, treatment duration, HDRS and YMRS
From the text: as §1
Serum levels of DM, memantine, plasma BDNF, and cytokines were measured. […] of whole blood was drawn and collected from the antecubital vein. Plasma were isolated from the whole blood after the 3000 g centrifugation at 4° C. for 15 min and stored at −80° C. immediately. Plasma BDNF, CRP, TNF-α, were measured at baseline, 1, 2, 4, 8 and 12 weeks and quantified using the enzyme-linked immunosorbent assays (ELISAs). Cytokine levels were quantified using an antibody pair assay system (Flexia; BioSource Intl., Camarillo, Calif.). Sample processing and data analysis were done according to the manufacturer's instructions. The low limit sensitivity was 0.126 pg/ml, 0.057 pg/ml, and 20 pg/ml for TNF-α, IL-1β, and BDNF respectively. Finally, HPLC with UV detector and therapeutic drug monitoring (TDM) was used to measure the plasma DM and VPA level respectively.
as §4, with “weeks. Concomitant benzodiazepine medication (lorazepam <8 mg) was used for nighttime sedation, and to treat agitation and insomnia during the study.” for “weeks.”
as §5

[2] = Metabolic profiles (cholesterol, HDL-C, LDL-C, triglyceride, glucose) in 12-week add-on trial; format: in vivo, human; details: for Within group change (baseline minus endpoint) Glucose, Mean ± SD / Within group change (baseline minus endpoint) HDL-C, Mean ± SD / Within group change (baseline minus endpoint) LDL-C, Mean ± SD / Within group change (baseline minus endpoint) Total cholesterol, Mean ± SD / Within group change (baseline minus endpoint) Triglyceride, Mean ± SD: BP-II patients, add-on to valproic acid, 12-week follow-up; for Glucose, difference versus placebo, B (standardized coefficient) / HDL-C, difference versus placebo, B (standardized coefficient) / LDL-C, difference versus placebo, B (standardized coefficient) / Total Cholesterol, difference versus placebo, B (standardized coefficient) / Triglyceride, difference versus placebo, B (standardized coefficient): GEE interaction term, placebo as reference, controlling for age, gender, treatment duration, HDRS and YMRS
From the text: as §1
Symptom severity, immunological parameters (plasma tumor necrosis factor α (TNF-α) and C-reactive protein (CRP)) and plasma brain derived neurotrophic factor (BDNF) were examined regularly. Metabolic profiles (cholesterol, triglyceride, HbA1C, fasting serum glucose, body mass index [BMI]) were measured at baseline and 2, 8, and 12 weeks. Concomitant benzodiazepine medication (lorazepam <8 mg) was used for nighttime sedation, and to treat agitation and insomnia during the study. Up to 20 mg/daily of fluoxetine was permitted for associated depressive symptoms.
as §2
as §3, with “group. The interaction term of treatment received X treatment duration was regarded as effect of add-on DM30, MM5, and DM30+MM5. To analyze correlations between cytokines, BDNF and metabolic profiles, GEE analysis was used as well.” for “group.”

[3] = Example 2: 4-week clinical trial of dextromethorphan added on to depakine, cholesterol and LDL; format: in vivo, human; details: 30 mg/day added on to depakine
Procedure: This example was a clinical trial for the treatment of bipolar II disorder using 30 mg/day of dextromethorphan (off label use) adding on to depakine (plasma level […]). 44 patients with bipolar II disorder were recruited, and change of cholesterol was monitored only over 4 weeks.

[4] = cited from earlier work
BP-II patients [5] = assay: Side effects / discontinuation in 12-week add-on trial; format: in vivo, human; details: 12-week trial, n=66 in group
From the text: 250˜300 male and female BP-II patients (18˜65 years old) were recruited, from the Department of Psychiatry at National Cheng Kung University Hospital and Tri-Service General Hospital into a 12-week treatment. The research protocol was examined for approval by the Institutional Review Board for the Protection of Human Subjects at National Cheng Kung University Hospital and Tri-Service General Hospital. All participants were given a complete description of the study and were asked to sign an informed consent before the study began. Patients who had major, mental illnesses other than BP-II and who had taken memantine or DM within 1 week before the first dose of the double-blind medication were excluded. […] After each patient had been diagnosed based on DSM-IV criteria by a senior psychiatrist and confirmed by a clinical psychologist using a structured interview, SADS-L, the severity of each patient's clinical symptoms was assessed using the 17-item Hamilton Rating Scale for Depression (HRSD) and the Young Mania Rating Scale (YMRS). […]
The severity of side effects was evaluated by using the Chinese version of Side-Effects Checklist which derived from Psychiatric Rating and Diagnostic Instruments (TRIMS, 1972) and included 7 categories as follows: 1) Mental Status; 2) Genito-Urinary; 3) Cardiovascular; 4) Head-Neck; 5) Extremities; 6) Skin; 7) Gastrointestinal. […]

[6] = test system: opioid addictive behavior; details: rat, 0.2 mg/kg (1/100 dosage); cited from earlier work

| Structure (SMILES) | Within group change (baseline minus endpoint) HDRS, Mean ± SD (BP-II patients [1]) | Within group change (baseline minus endpoint) YMRS, Mean ± SD (BP-II patients [1]) | HDRS, difference versus placebo, B (standardized coefficient) (BP-II patients [1]) | YMRS, difference versus placebo, B (standardized coefficient) (BP-II patients [1]) | Within group change (baseline minus endpoint) TNF-α, Mean ± SD (TNF-α) [pg/mL] | TNF-α, difference versus placebo, B (standardized coefficient) (TNF-α) | Within group change (baseline minus endpoint) CRP, Mean ± SD (CRP) [ng/mL] | CRP, difference versus placebo, B (standardized coefficient) (CRP) | Within group change (baseline minus endpoint) BDNF, Mean ± SD (BDNF) [ng/mL] | BDNF, difference versus placebo, B (standardized coefficient) (BDNF) | Within group change (baseline minus endpoint) Glucose, Mean ± SD [2] [mg/dL] | Within group change (baseline minus endpoint) HDL-C, Mean ± SD [2] [mg/dL] | Within group change (baseline minus endpoint) LDL-C, Mean ± SD [2] [mg/dL] | Within group change (baseline minus endpoint) Total cholesterol, Mean ± SD [2] [mg/dL] | Within group change (baseline minus endpoint) Triglyceride, Mean ± SD [2] [mg/dL] | Glucose, difference versus placebo, B (standardized coefficient) [2] | HDL-C, difference versus placebo, B (standardized coefficient) [2] | LDL-C, difference versus placebo, B (standardized coefficient) [2] | Total Cholesterol, difference versus placebo, B (standardized coefficient) [2] | Triglyceride, difference versus placebo, B (standardized coefficient) [2] | further results |
| --- | --- | --- | --- | --- | --- | --- | --- | --- | --- | --- | --- | --- | --- | --- | --- | --- | --- | --- | --- | --- | --- |
| COc1ccc2c(c1)[C@]13CCCC[C@@H]1[C@H](C2)N(C)CC3 [DM30, dextromethorphan] | 6.4 ± 4.7 | 4.7 ± 3.4 | −1.38 | −1.00 | 0.1 ± 2.5 | −0.04 | 10.9 ± 1290.3 | 0.05 | -2.3 ± 8.3 | 2.94 | 9.0 ± 38.1 | 1.6 ± 10.2 | -0.9 ± 23.1 | -0.1 ± 28.7 | -11.6 ± 168.4 | −5.33 | 0.79 | 8.80 | 6.95 | 28.08 | BDNF level, within group change, in words (BDNF; after 12 weeks of treatment): Significant improved; cholesterol and LDL in human, in words ([3]; 4 weeks): decreased; low density lipid protein (LDL), first value (before treatment) ([3]; 44 bipolar II patients): 127.70 ± 34.24 mg/dL; total cholesterol, first value (before treatment) ([3]; 44 bipolar II patients): 194.70 ± 39.49 mg/dL; total cholesterol over 4-week of treatment, second value ([3]; 44 bipolar II patients, P=0.09): 186.16 ± 37.95 mg/dL; low density lipid protein (LDL) over 4-week of treatment, second value ([3]; 44 bipolar II patients, P=0.13): 120.84 ± 34.013 mg/dL; plasma levels of DM ([4]; BP patients, U.S. Pat. No. 8,785,472): 5 to 100 ng/mL; plasma DM concentrations ([4]; patients taking 30-60 mg/70 kg of DM, listed as DM): 10-30 ng/ml and 28-84 nM |
| CC12CC3CC(C)(C1)CC(N)(C3)C2 [MM5, memantine] | 6.3 ± 4.9 | 4.6 ± 3.9 | −1.33 | −0.98 | 0.3 ± 1.8 | −0.15 | -12.6 ± 1269.4 | 0.09 | 0.3 ± 7.6 | 0.02 | -3.3 ± 22.6 | 2.4 ± 8.7 | 2.6 ± 22.0 | 0.5 ± 24.5 | -10.7 ± 38.7 | 7.63 | −0.07 | 4.45 | 3.14 | 8.81 | patients discontinuing with poor tolerance to a side effect (dizziness) (BP-II patients [5]): One; opioid addictive behavior by conditioned place preference, in words [6]: effective |
